Reference: patent US10231954B2, “Neurodegenerative therapies” (LYTIX BIOPHARMA AS, priority 2014, dated 2019)

What was measured:
Assay type in all cases: biochemical
MNK2 = MNK2 (Homo sapiens, UniProt Q9HBH9); assay: Kinase profiling MNK2; details: 100 micromolar inhibitor concentration, 100 is no change; for remaining activity at 100 µM: read-out: residual kinase activity, MNK2
Source text: (§1) Any value less that 25 is considered to be highly significant inhibition.

MAPKAP-K2 = MAPKAP-K2 (Homo sapiens, UniProt P49137); assay: Kinase profiling MAPKAP-K2; details: 100 micromolar inhibitor concentration, 100 is no change; for remaining activity at 100 µM: read-out: residual kinase activity, MAPKAP-K2
Sequence of MAPKAP-K2 (P49137 whole entry, species assumed): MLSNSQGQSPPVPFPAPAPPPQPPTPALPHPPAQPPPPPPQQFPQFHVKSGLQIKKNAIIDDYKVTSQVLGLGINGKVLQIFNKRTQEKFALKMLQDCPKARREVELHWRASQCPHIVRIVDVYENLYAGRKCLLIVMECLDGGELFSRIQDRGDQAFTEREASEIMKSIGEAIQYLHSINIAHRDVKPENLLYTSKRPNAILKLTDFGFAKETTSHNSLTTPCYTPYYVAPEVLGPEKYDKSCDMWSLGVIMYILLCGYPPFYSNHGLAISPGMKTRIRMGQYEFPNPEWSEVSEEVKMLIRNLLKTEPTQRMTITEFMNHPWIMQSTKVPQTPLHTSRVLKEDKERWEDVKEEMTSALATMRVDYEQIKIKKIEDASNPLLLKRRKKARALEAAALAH
Source text: as §1

CDK2-Cyclin A = CDK2-Cyclin A (Homo sapiens, UniProt P24941); assay: Kinase profiling CDK2-Cyclin A; details: 100 micromolar inhibitor concentration, 100 is no change; for remaining activity at 100 µM: read-out: residual kinase activity, CDK2-Cyclin A
Source text: as §1

MARK2 = MARK2 (Homo sapiens, UniProt Q7KZI7); assay: Kinase profiling MARK2; details: 100 micromolar inhibitor concentration, 100 is no change; for remaining activity at 100 µM: read-out: residual kinase activity, MARK2
Sequence of MARK2 (Q7KZI7 whole entry, species assumed): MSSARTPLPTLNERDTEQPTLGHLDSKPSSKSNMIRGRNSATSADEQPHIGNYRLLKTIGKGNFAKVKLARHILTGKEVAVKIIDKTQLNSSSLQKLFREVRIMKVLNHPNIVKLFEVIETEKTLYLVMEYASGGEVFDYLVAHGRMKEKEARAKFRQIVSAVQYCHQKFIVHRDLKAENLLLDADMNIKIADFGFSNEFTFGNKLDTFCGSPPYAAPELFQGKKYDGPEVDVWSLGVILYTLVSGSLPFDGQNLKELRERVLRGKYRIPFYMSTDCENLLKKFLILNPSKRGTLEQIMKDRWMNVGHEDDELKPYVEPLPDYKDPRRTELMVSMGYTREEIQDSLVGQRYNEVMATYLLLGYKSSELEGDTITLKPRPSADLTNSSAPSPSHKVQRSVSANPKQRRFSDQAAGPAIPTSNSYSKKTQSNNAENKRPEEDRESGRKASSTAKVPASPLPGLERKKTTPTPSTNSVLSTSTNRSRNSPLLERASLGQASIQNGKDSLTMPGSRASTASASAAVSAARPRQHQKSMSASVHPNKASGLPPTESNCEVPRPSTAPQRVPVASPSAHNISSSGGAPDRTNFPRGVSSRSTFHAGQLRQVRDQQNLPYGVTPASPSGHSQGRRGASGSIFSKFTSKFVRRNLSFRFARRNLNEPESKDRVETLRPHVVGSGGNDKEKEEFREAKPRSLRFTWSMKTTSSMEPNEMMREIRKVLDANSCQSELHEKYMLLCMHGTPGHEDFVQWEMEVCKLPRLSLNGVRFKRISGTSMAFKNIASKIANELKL
Source text: as §1

NUAK1 = target: T1, NUAK1 (Homo sapiens, UniProt O60285); assay: Kinase profiling NUAK1; details: 100 micromolar inhibitor concentration, 100 is no change; for remaining activity at 100 µM: read-out: residual kinase activity, NUAK1
T1 sequence (O60285 1-661): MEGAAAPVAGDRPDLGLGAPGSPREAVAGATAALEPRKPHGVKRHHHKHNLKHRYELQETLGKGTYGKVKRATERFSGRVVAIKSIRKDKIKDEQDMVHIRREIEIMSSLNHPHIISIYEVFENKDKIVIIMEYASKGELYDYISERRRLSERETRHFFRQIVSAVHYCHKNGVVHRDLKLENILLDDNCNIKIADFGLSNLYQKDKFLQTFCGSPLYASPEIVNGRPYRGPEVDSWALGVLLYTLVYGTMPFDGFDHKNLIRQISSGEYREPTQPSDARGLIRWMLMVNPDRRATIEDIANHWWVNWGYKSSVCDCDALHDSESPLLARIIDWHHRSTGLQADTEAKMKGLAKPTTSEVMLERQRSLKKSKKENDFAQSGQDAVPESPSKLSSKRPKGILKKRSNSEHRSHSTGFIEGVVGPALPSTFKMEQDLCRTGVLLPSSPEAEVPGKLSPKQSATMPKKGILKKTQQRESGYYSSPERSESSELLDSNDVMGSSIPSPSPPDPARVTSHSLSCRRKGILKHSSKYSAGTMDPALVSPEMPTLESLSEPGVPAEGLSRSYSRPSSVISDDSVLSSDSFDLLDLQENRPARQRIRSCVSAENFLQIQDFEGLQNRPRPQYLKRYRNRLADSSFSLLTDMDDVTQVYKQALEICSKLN
Source text: as §1

PAK6 = PAK6 (Homo sapiens, UniProt Q9NQU5); assay: Kinase profiling PAK6; details: 100 micromolar inhibitor concentration, 100 is no change; for remaining activity at 100 µM: read-out: residual kinase activity, PAK6
Sequence of PAK6 (Q9NQU5 whole entry, species assumed): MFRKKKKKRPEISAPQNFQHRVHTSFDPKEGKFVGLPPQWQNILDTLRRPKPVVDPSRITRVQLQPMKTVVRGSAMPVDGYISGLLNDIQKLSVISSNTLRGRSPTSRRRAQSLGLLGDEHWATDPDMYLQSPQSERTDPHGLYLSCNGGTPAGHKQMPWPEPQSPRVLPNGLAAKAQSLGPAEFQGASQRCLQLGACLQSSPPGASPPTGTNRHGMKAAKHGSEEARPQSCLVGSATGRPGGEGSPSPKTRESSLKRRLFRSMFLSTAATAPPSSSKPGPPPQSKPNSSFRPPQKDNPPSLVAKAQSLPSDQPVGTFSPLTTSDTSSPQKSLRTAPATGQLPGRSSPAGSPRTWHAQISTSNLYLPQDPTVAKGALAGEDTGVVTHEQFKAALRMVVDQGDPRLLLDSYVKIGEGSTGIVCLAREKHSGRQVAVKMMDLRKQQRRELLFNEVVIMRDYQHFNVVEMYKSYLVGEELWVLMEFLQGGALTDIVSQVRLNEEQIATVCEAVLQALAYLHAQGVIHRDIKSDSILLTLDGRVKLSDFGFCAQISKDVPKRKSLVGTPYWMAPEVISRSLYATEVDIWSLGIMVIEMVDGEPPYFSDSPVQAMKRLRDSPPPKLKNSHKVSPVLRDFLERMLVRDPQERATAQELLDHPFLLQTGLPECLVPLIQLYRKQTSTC
Source text: as §1

MST4 = MST4 (Homo sapiens, UniProt Q9P289); assay: Kinase profiling MST4; details: 100 micromolar inhibitor concentration, 100 is no change; for remaining activity at 100 µM: read-out: residual kinase activity, MST4
Sequence of MST4 (Q9P289 whole entry, species assumed): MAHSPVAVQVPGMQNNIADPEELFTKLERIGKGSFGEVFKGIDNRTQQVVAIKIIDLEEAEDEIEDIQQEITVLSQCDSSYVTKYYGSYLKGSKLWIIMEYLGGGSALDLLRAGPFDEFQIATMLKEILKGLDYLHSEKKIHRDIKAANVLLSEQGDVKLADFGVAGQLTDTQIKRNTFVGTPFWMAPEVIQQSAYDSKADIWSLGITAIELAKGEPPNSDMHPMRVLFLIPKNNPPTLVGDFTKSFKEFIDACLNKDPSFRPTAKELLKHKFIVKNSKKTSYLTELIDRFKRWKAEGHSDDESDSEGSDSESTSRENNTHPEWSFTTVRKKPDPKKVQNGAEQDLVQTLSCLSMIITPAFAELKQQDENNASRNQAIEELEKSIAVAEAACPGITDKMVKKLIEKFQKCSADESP
Source text: as §1

TESK1 = TESK1 (Homo sapiens, UniProt Q15569); assay: Kinase profiling TESK1; details: 100 micromolar inhibitor concentration, 100 is no change; for remaining activity at 100 µM: read-out: residual kinase activity, TESK1
Sequence of TESK1 (Q15569 whole entry, species assumed): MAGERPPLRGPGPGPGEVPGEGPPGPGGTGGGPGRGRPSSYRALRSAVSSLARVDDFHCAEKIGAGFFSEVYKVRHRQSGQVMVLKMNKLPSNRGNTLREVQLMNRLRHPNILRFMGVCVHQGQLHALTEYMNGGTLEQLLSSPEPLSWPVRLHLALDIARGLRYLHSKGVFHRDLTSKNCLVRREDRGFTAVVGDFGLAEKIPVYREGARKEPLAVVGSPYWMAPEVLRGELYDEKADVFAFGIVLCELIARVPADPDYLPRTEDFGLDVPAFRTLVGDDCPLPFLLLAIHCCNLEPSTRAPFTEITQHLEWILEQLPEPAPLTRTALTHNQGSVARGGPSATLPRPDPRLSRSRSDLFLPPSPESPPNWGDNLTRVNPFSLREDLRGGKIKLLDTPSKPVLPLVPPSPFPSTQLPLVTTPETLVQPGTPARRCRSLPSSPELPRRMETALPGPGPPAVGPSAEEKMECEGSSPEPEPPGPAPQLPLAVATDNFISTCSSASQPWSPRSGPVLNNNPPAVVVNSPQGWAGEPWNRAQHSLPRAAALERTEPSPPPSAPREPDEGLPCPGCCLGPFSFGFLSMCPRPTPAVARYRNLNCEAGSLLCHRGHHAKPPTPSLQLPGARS
Source text: as §1

YES1 = YES1 (Homo sapiens, UniProt P07947); assay: Kinase profiling YES1; details: 100 micromolar inhibitor concentration, 100 is no change; for remaining activity at 100 µM: read-out: residual kinase activity, YES1
Sequence of YES1 (P07947 whole entry, species assumed): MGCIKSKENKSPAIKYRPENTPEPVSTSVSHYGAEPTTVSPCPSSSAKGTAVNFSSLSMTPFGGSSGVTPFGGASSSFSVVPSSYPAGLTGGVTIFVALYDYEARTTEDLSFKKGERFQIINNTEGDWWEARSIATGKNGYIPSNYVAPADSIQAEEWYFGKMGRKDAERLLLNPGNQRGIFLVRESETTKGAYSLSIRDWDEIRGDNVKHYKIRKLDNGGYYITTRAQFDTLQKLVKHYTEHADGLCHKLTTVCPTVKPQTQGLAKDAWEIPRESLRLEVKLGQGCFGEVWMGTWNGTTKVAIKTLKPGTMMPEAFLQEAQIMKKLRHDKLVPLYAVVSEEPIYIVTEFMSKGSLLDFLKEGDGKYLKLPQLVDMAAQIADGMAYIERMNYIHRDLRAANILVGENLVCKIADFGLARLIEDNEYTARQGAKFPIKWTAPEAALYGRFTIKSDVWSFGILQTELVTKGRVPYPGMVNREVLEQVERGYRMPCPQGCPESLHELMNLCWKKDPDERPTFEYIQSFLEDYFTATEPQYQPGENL
Source text: as §1

EPH-B3 = target: T2, EPH-B3 (Homo sapiens, UniProt P54753); assay: Kinase profiling EPH-B3; details: 100 micromolar inhibitor concentration, 100 is no change; for remaining activity at 100 µM: read-out: residual kinase activity, EPH-B3
T2 sequence (P54753 34-998): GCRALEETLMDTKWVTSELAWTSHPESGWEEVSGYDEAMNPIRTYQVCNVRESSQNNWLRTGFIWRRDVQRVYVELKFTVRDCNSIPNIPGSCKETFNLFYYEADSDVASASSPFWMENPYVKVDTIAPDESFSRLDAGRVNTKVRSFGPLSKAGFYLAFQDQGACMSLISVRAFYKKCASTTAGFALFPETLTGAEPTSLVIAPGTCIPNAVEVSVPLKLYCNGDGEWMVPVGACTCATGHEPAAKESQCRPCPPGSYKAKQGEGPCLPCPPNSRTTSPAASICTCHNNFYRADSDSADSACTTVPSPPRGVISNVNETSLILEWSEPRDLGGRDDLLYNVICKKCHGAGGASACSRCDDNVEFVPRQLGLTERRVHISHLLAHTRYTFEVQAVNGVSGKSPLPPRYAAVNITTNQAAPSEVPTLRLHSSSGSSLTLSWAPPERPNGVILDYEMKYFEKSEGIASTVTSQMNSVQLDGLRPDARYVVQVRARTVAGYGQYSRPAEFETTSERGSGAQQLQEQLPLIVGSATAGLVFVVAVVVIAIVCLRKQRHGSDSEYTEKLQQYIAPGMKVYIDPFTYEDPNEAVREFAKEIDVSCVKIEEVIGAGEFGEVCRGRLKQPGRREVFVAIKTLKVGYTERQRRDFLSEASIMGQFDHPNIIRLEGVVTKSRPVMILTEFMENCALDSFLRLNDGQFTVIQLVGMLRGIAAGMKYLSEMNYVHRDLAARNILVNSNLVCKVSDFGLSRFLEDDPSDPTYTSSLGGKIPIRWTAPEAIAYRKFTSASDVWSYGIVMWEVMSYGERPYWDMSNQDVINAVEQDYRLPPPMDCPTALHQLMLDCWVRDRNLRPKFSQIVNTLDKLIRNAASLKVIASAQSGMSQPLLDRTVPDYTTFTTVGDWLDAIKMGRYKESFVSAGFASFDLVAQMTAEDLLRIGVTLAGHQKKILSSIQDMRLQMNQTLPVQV
Source text: as §1

PDGFRA = PDGFRA (Homo sapiens, UniProt P16234); assay: Kinase profiling PDGFRA; details: 100 micromolar inhibitor concentration, 100 is no change; for remaining activity at 100 µM: read-out: residual kinase activity, PDGFRA
Sequence of PDGFRA (P16234 24-1089, species assumed): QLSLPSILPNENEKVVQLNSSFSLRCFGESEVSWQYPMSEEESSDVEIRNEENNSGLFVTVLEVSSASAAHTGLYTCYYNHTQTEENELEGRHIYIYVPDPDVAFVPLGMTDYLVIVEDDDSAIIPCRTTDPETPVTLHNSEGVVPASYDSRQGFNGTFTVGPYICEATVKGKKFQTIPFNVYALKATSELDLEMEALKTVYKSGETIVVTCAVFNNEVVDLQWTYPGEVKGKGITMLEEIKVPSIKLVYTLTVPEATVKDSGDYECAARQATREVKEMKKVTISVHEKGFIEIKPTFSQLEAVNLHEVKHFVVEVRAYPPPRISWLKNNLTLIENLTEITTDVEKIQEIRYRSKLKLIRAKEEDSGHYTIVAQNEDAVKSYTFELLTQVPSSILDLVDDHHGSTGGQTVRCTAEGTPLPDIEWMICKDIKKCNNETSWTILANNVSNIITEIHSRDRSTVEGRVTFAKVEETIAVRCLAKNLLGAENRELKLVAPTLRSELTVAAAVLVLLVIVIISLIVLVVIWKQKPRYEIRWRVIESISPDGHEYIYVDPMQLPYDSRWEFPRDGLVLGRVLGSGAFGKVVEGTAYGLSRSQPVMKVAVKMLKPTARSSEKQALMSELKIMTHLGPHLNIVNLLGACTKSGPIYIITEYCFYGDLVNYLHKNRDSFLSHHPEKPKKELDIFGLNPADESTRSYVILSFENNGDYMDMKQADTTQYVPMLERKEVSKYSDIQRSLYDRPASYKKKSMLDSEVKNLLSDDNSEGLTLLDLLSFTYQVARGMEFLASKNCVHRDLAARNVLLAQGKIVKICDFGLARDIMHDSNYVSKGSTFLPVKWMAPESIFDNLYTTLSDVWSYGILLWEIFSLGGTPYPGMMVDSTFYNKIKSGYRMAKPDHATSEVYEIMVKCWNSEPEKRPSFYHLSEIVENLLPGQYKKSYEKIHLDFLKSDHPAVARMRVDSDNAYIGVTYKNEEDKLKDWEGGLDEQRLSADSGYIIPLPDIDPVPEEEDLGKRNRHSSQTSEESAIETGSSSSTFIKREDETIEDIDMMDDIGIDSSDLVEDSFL
Source text: as §1

Sequence of MNK2 (Q9HBH9 whole entry, species assumed): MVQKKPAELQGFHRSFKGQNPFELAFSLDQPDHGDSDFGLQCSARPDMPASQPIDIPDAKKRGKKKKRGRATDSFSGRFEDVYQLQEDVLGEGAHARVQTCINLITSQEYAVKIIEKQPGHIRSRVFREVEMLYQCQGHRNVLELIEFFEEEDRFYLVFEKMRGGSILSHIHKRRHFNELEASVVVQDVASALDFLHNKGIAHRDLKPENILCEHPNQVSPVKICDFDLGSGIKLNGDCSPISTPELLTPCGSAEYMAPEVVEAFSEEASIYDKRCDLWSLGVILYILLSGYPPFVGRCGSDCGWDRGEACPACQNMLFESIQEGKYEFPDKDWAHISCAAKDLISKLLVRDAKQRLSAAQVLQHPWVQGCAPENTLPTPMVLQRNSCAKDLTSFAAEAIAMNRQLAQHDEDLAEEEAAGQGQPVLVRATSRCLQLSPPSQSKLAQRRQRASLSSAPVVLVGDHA

## O=C(Nc1nc2cc(O)ccc2s1)c1cccnc1 [Compound 03-33]
MNK2
  residual kinase activity, MNK2: 36
MAPKAP-K2
  residual kinase activity, MAPKAP-K2: 109
CDK2-Cyclin A
  residual kinase activity, CDK2-Cyclin A: 92
MARK2
  residual kinase activity, MARK2: 102
NUAK1
  residual kinase activity, NUAK1: 68
PAK6
  residual kinase activity, PAK6: 119
MST4
  residual kinase activity, MST4: 103
TESK1
  residual kinase activity, TESK1: 102
YES1
  residual kinase activity, YES1: 91
EPH-B3
  residual kinase activity, EPH-B3: 108
PDGFRA
  residual kinase activity, PDGFRA: 61

## O=C(Nc1nc2ccc(O)cc2s1)c1ccccc1 [Compound 03-60]
MNK2
  residual kinase activity, MNK2: 25
MAPKAP-K2
  residual kinase activity, MAPKAP-K2: 59
CDK2-Cyclin A
  residual kinase activity, CDK2-Cyclin A: 78
MARK2
  residual kinase activity, MARK2: 65
NUAK1
  residual kinase activity, NUAK1: 14
PAK6
  residual kinase activity, PAK6: 104
MST4
  residual kinase activity, MST4: 71
TESK1
  residual kinase activity, TESK1: 65
YES1
  residual kinase activity, YES1: 65
EPH-B3
  residual kinase activity, EPH-B3: 93
PDGFRA
  residual kinase activity, PDGFRA: 29

## CC(=O)Nc1nc2cc(C(F)(F)F)ccc2s1 [Compound 03-73]
MNK2
  remaining activity at 100 µM: 96%
MAPKAP-K2
  remaining activity at 100 µM: 114%
CDK2-Cyclin A
  remaining activity at 100 µM: 96%
MARK2
  remaining activity at 100 µM: 99%
NUAK1
  remaining activity at 100 µM: 74%
PAK6
  remaining activity at 100 µM: 11%
MST4
  remaining activity at 100 µM: 91%
TESK1
  remaining activity at 100 µM: 115%
YES1
  remaining activity at 100 µM: 108%
EPH-B3
  remaining activity at 100 µM: 114%
PDGFRA
  remaining activity at 100 µM: 34%

## CC(=O)Nc1nc2cc(C)ccc2s1 [Compound 03-76]
MNK2
  residual kinase activity, MNK2: 81
MAPKAP-K2
  residual kinase activity, MAPKAP-K2: 105
CDK2-Cyclin A
  residual kinase activity, CDK2-Cyclin A: 72
MARK2
  residual kinase activity, MARK2: 97
NUAK1
  residual kinase activity, NUAK1: 58
PAK6
  residual kinase activity, PAK6: 108
MST4
  residual kinase activity, MST4: 103
TESK1
  residual kinase activity, TESK1: 106
YES1
  residual kinase activity, YES1: 104
EPH-B3
  residual kinase activity, EPH-B3: 107
PDGFRA
  residual kinase activity, PDGFRA: 59

## CC(=O)Nc1nc2cc(F)ccc2s1 [Compound 03-77]
MNK2
  remaining activity at 100 µM: 86%
MAPKAP-K2
  remaining activity at 100 µM: 106%
CDK2-Cyclin A
  remaining activity at 100 µM: 66%
MARK2
  remaining activity at 100 µM: 79%
NUAK1
  remaining activity at 100 µM: 66%
PAK6
  remaining activity at 100 µM: 106%
MST4
  remaining activity at 100 µM: 88%
TESK1
  remaining activity at 100 µM: 106%
YES1
  remaining activity at 100 µM: 85%
EPH-B3
  remaining activity at 100 µM: 113%
PDGFRA
  remaining activity at 100 µM: 59%

## O=C(Nc1nc2ccc(O)cc2s1)c1ccncc1 [Compound 08-42]
MNK2
  residual kinase activity, MNK2: 33
MAPKAP-K2
  residual kinase activity, MAPKAP-K2: 72
CDK2-Cyclin A
  residual kinase activity, CDK2-Cyclin A: 72
MARK2
  residual kinase activity, MARK2: 67
NUAK1
  residual kinase activity, NUAK1: 57
PAK6
  residual kinase activity, PAK6: 93
MST4
  residual kinase activity, MST4: 79
TESK1
  residual kinase activity, TESK1: 73
YES1
  residual kinase activity, YES1: 79
EPH-B3
  residual kinase activity, EPH-B3: 88
PDGFRA
  residual kinase activity, PDGFRA: 40

## O=C(Nc1nc2ccc(O)cc2s1)c1cccnc1 [Compound 08-44]
MNK2
  residual kinase activity, MNK2: 36
MAPKAP-K2
  residual kinase activity, MAPKAP-K2: 56
CDK2-Cyclin A
  residual kinase activity, CDK2-Cyclin A: 72
MARK2
  residual kinase activity, MARK2: 74
NUAK1
  residual kinase activity, NUAK1: 39
PAK6
  residual kinase activity, PAK6: 94
MST4
  residual kinase activity, MST4: 80
TESK1
  residual kinase activity, TESK1: 70
YES1
  residual kinase activity, YES1: 74
EPH-B3
  residual kinase activity, EPH-B3: 65
PDGFRA
  residual kinase activity, PDGFRA: 44
